According to patent publication US20080269213A1, “8-Hydroxyquinoline compounds and methods thereof” (Wyeth, priority 2006, published 2008):
Values joined by “and” are separate entries in the source; they are usually repeats but may differ in a detail not shown here. Equal values may be shown once. Read-outs that look alike come from different tables or passages of the source.

Key:
Agg-1 = biological target: T1, Agg-1 (Homo sapiens, UniProt O75173); assay: Agg-1 FRET assay; assay type: biochemical; settings: for inhibition at 7.4 µM: @ 7400 nM; for inhibition at 7.5 µM: @ 7500 nM
T1 sequence (O75173 213-837): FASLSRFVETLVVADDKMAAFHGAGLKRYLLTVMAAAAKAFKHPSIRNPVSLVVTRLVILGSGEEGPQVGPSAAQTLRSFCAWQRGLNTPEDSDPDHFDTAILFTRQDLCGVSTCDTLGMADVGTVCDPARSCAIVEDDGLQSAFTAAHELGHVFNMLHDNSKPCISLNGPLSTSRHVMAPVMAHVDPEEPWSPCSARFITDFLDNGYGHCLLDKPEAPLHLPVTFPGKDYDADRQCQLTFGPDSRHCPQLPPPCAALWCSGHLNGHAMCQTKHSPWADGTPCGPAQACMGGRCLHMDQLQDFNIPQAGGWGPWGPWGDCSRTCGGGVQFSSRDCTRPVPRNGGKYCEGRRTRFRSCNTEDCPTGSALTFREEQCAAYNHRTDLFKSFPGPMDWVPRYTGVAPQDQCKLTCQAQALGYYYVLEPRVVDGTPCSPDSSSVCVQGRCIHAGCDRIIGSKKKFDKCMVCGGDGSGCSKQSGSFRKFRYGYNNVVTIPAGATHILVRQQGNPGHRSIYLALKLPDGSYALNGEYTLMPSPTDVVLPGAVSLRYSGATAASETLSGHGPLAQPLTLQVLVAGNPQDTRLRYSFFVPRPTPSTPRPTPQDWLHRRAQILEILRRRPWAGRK
Excerpt: The Agg-1/Agg-2 FRET data for N-[(8-hydroxyquinolin-2-yl)(phenyl)methyl]-2-phenoxyacetamide and 2-{[(phenoxyacetyl)amino](phenyl)methyl}quinolin-8-yl phenoxyacetate is presented in Table 1.

[1] = biological target: T2, recombinant human Aggrecanase-2 Agg2-Phe628 (Homo sapiens, UniProt Q9UNA0); assay: Aggrecanase 2 in vitro enzyme assay (Agg-2 FRET, quenched fluorescent peptide substrate); assay type: biochemical; parameters: purified recombinant human Aggrecanase-2 Agg2-Phe628 (MW=41,737); This is a truncated form of full-length human aggrecanase-2; made in house; host or cells: CHO cells; settings: for Agg-2 FRET Median PCT INHIB: concentration not given
T2 sequence (Q9UNA0 262-628 limits assumed): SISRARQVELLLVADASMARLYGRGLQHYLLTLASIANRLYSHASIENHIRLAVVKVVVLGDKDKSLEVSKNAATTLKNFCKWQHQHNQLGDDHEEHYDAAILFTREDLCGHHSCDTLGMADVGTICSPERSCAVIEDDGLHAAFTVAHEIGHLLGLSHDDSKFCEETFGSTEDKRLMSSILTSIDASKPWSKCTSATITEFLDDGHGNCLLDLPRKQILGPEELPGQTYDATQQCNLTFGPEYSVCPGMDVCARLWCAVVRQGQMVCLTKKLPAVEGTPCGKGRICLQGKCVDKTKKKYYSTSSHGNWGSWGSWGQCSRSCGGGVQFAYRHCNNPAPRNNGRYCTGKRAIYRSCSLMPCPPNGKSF
In short: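 Kinetic fluorescence (λex 340, λem 420 nm) monitored over 40 min at 30 °C after adding 25 μM final Abz/Dnp brevican-based quenched peptide. Enzyme: recombinant truncated human Agg2-Phe628 from CHO, 0.5 μg/ml final, mixed with inhibitor first; buffer HEPES pH 7.5 with NaCl, CaCl2, CHAPS, glycerol; compounds in duplicate.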

[2] = read-out: Agg-2 FRET Median IC50
[3] = read-out: Agg-2 IC50 (μM) or % Inhibition
[4] = IC50, read-out: Agg-1 IC50 (μM) or % Inhibition

O=C(COc1ccccc1)NC(c1ccc2c(c1)CCO2)c1cc(Cl)c2cccnc2c1O (centres unmarked) [Example 170, N-[(5-chloro-8-hydroxyquinolin-7-yl)(2,3-dihydro-1-benzofuran-5-yl)methyl]-2-phenoxyacetamide]
inhibition at 7.4 µM (Agg-1; read-out: Agg1 %): 43% | IC50 ([1]; read-out: Agg2 IC50): 2.4 µM

CN(C)c1cc(C(NC(=O)COc2ccccc2)c2ccccc2)c(O)c2ncccc12 (centres unmarked) [N-[[5-(dimethylamino)-8-hydroxyquinolin-7-yl](phenyl)methyl]-2-phenoxyacetamide]
IC50 (Agg-1; read-out: Agg1 IC50): ~25 µM | Agg-2 FRET Median PCT INHIB [1]: 58% | IC50 ([1]; read-out: Agg2 IC50): 33.3 to 100 µM

O=C(COc1ccccc1)NC(c1ccccc1N1CCOCC1)c1cc(Cl)c2cccnc2c1O (centres unmarked) [N-[(5-chloro-8-hydroxyquinolin-7-yl)(2-morpholin-4-ylphenyl)methyl]-2-phenoxyacetamide]
inhibition at 22 µM (Agg-1; @ 22000 nM, read-out: Agg1 %): 59% | inhibition at […] ([1]; @ 1200 nM): 43%

O=C(COc1ccccc1)NC(c1cc(Cl)c2cccnc2c1O)c1coc2ccccc2c1=O (centres unmarked) [N-[(5-chloro-8-hydroxyquinolin-7-yl)(4-oxo-4H-chromen-3-yl)methyl]-2-phenoxyacetamide]
IC50 (Agg-1; read-out: Agg1 IC50): ~11 µM | inhibition at […] ([1]; @ 2500 nM): 72%

O=C(COc1ccccc1)NC(c1ccco1)c1cc(Cl)c2cccnc2c1O (centres unmarked) [N-[(5-chloro-8-hydroxyquinolin-7-yl)(2-furyl)methyl]-2-phenoxyacetamide]
inhibition at 67 µM (Agg-1; @ 67000 nM, read-out: Agg1 %): 51% | IC50 ([1]; read-out: Agg2 IC50): 2.43 µM | IC50 [1, 2]: 3.9 µM and 2.43 µM

COc1cc(OCC(=O)NC(c2ccccc2)c2cc(Cl)c3cccnc3c2O)cc(OC)c1OC (centres unmarked) [N-[(5-chloro-8-hydroxyquinolin-7-yl)(phenyl)methyl]-2-(3,4,5-trimethoxyphenoxy)acetamide]
inhibition at 7.5 µM (Agg-1; read-out: Agg1 %): 54% | IC50 ([1]; read-out: Agg2 IC50): 1.8 µM

O=C(COc1ccccc1)NC(c1ccccc1[N+](=O)[O-])c1cc(Cl)c2cccnc2c1O (centres unmarked) [N-[(5-chloro-8-hydroxyquinolin-7-yl)(2-nitrophenyl)methyl]-2-phenoxyacetamide]
inhibition at 7.4 µM (Agg-1; read-out: Agg1 %): 48% | inhibition at […] ([1]; @ 1200 nM): 58% | IC50 [1, 2]: 1.21 µM

Cc1ccsc1C(NC(=O)Cc1ccccc1)c1cc(Cl)c2cccnc2c1O (centres unmarked) [N-[(5-chloro-8-hydroxyquinolin-7-yl)(3-methyl-2-thienyl)methyl]-2-phenylacetamide]
inhibition at 20 µM (Agg-1; @ 20000 nM, read-out: Agg1 %): 52% | IC50 ([1]; read-out: Agg2 IC50): 2.54 µM | IC50 [1, 2]: 2.54 µM

O=C(COc1ccccc1)NC(c1ccccc1Cl)c1cc(Cl)c2cccnc2c1O (centres unmarked) [N-[(5-chloro-8-hydroxyquinolin-7-yl)(2-chlorophenyl)methyl]-2-phenoxyacetamide]
IC50 (Agg-1; read-out: Agg1 IC50): > 22 µM | IC50 ([1]; read-out: Agg2 IC50): 1.55 µM | IC50 [1, 2]: 1.55 µM and 0.35 µM

Cc1ccc(-c2cccc(C(Cc3cc(Cl)c4cccnc4c3O)NC(=O)COCc3ccccc3)c2)s1 (centres unmarked)
inhibition at 66.7 µM (Agg-1; % inhibition @ 66.7 μM, read-out: Agg-1 IC50 (μM) or % Inhibition): 48% | inhibition at 22 µM [1, 3]: 56%

CN(C)CC(=O)Nc1cccc(C(NC(=O)COc2ccccc2)c2cc(Cl)c3cccnc3c2O)c1 (centres unmarked) [Example 206, N-(3-{(5-chloro-8-hydroxyquinolin-7-yl)[(phenoxyacetyl)amino]methyl}phenyl)-N2,N2-dimethylglycinamide]
IC50 (Agg-1; read-out: Agg1 IC50): 22 to 67 µM | IC50 ([1]; read-out: Agg2 IC50): 2.9 µM

O=C(COc1ccccc1)NC(c1ccc(-c2csnn2)cc1)c1cc(Cl)c2cccnc2c1O (centres unmarked) [Example 147, N-{(5-chloro-8-hydroxyquinolin-7-yl)[4-(1,2,3-thiadiazol-4-yl)phenyl]methyl}-2-phenoxyacetamide]
IC50 (Agg-1; read-out: Agg1 IC50): 4.68 µM | IC50 ([1]; read-out: Agg2 IC50): 1.07 µM | IC50 [1, 2]: 1.07 µM

O=C(COc1ccccc1)NC(c1cc2c(cc1Cl)OCO2)c1cc(Cl)c2cccnc2c1O (centres unmarked) [N-[(6-chloro-1,3-benzodioxol-5-yl)(5-chloro-8-hydroxyquinolin-7-yl)methyl]-2-phenoxyacetamide]
IC50 (Agg-1; read-out: Agg1 IC50): > 30 µM | IC50 ([1]; read-out: Agg2 IC50): 1.37 µM | IC50 [1, 2]: 1.37 µM

O=C(CCl)Nc1cccc(C(NC(=O)COc2ccccc2)c2cc(Cl)c3cccnc3c2O)c1 (centres unmarked) [Example 205, 2-chloro-N-(3-{(5-chloro-8-hydroxyquinolin-7-yl)[(phenoxyacetyl)amino]methyl}phenyl)acetamide]
IC50 (Agg-1; read-out: Agg1 IC50): ~20 µM | IC50 ([1]; read-out: Agg2 IC50): 1.47 µM

Cc1ccc(-c2cccc(C(Cc3cc(Cl)c4cccnc4c3O)NC(=O)COc3ccc(C(C)(C)C)cc3)c2)s1 (centres unmarked)
inhibition at 22 µM (Agg-1; read-out: Agg-1 IC50 (μM) or % Inhibition): 46% | inhibition at 200 µM [1, 3]: 56%

O=C(NC(Cc1cc(Cl)c2cccnc2c1O)c1cccc(CN2CCCC2)c1)c1ccc(-c2ccccc2)cc1 (centres unmarked) [drawing 58]
IC50 (Agg-1; [4]): 5.9 µM | IC50 ([1]; IC50, read-out: Agg-2 IC50 (μM) or % Inhibition): 3.4 µM

CO/C(=C\c1ccccc1)C(NC(=O)COc1ccccc1)c1cc(Cl)c2cccnc2c1O (centres unmarked) [N-[(2Z)-1-(5-chloro-8-hydroxyquinolin-7-yl)-2-methoxy-3-phenylprop-2-en-1-yl]-2-phenoxyacetamide]
inhibition at 11 µM (Agg-1; @ 11000 nM, read-out: Agg1 %): 47% | inhibition at […] ([1]; @ 2500 nM): 50%

O=C(COc1ccccc1)NC(Cc1ccc2cccnc2c1O)c1ccccc1 (centres unmarked)
IC50 (Agg-1; [4]): 2.1 µM | inhibition at 100 µM [1, 3]: 59%

C=CC(NC(=O)COc1ccccc1)c1cc(Cl)c2cccnc2c1O (centres unmarked) [Example 186, N-[1-(5-chloro-8-hydroxyquinolin-7-yl)prop-2-en-1-yl]-2-phenoxyacetamide]
inhibition at 0.8 µM (Agg-1; @ 800 nM, read-out: Agg1 %): 50% | inhibition at 3.7 µM ([1]; @ 3700 nM): 38%

O=C(CNCc1ccc(-c2ccccc2)cc1)NC(c1ccccc1)c1cc(Cl)c2cccnc2c1O (centres unmarked) [Example 230, N^2-(biphenyl-4-ylmethyl)-N-[(5-chloro-8-hydroxyquinolin-7-yl)(phenyl)methyl]glycinamide]
IC50 (Agg-1; read-out: Agg1 IC50): > 20 µM | IC50 ([1]; read-out: Agg2 IC50): 1.29 µM

O=C(COc1ccccc1)NC(/C=C/c1ccccc1)c1cc(Cl)c2cccnc2c1O (centres unmarked) [N-[(2E)-1-(5-chloro-8-hydroxyquinolin-7-yl)-3-phenylprop-2-en-1-yl]-2-phenoxyacetamide]
inhibition at 7.5 µM (Agg-1; read-out: Agg1 %): 50% | IC50 ([1]; read-out: Agg2 IC50): 1.6 µM

O=C(COc1ccccc1)NC(c1ccc(C#Cc2ccccc2)cc1)c1cc(Cl)c2cccnc2c1O (centres unmarked) [Example 141, N-{(5-chloro-8-hydroxyquinolin-7-yl)[4-(phenylethynyl)phenyl]methyl}-2-phenoxyacetamide]
inhibition at 7.4 µM (Agg-1; read-out: Agg1 %): 48% | inhibition at […] ([1]; @ 1200 nM): 58% | Agg-2 FRET Median PCT INHIB [1]: 50%

O=C(NC(c1ccc2c(c1)OCO2)c1cc(Cl)c2cccnc2c1O)OCc1ccccc1 (centres unmarked) [benzyl [1,3-benzodioxol-5-yl(5-chloro-8-hydroxyquinolin-7-yl)methyl]carbamate]
IC50 (Agg-1; read-out: Agg1 IC50): > 3 µM | IC50 ([1]; read-out: Agg2 IC50): 1.56 µM | IC50 [1, 2]: 1.56 µM

COc1ccc(Oc2cccc(C(NC(=O)COc3ccccc3)c3cc(Cl)c4cccnc4c3O)c2)cc1 (centres unmarked) [Example 128, N-{(5-chloro-8-hydroxyquinolin-7-yl)[3-(4-methoxyphenoxy)phenyl]methyl}-2-phenoxyacetamide]
inhibition at 7.4 µM (Agg-1; read-out: Agg1 %): 57% | IC50 ([1]; read-out: Agg2 IC50): 1.1 µM

O=C(CNCc1ccc2c(c1)OCO2)NC(c1ccccc1Cl)c1cc(Cl)c2cccnc2c1O (centres unmarked) [Example 232, N2-(1,3-benzodioxol-5-ylmethyl)-N-[(5-chloro-8-hydroxyquinolin-7-yl)(2-chlorophenyl)methyl]glycinamide]
IC50 (Agg-1; read-out: Agg1 IC50): 13.7 µM | IC50 ([1]; read-out: Agg2 IC50): 1.8 µM

CCOC(=O)Cc1cccc(C(NC(=O)COc2ccccc2)c2cc(Cl)c3cccnc3c2O)c1 (centres unmarked) [Example 127, ethyl(3-{(5-chloro-8-hydroxyquinolin-7-yl)[(phenoxyacetyl)amino]methyl}phenyl)acetate]
inhibition at 22 µM (Agg-1; @ 22000 nM, read-out: Agg1 %): 41% | inhibition at 33 µM ([1]; @ 33000 nM): 50% | IC50 [1, 2]: 1.45 µM

O=C(CN1CCC(c2ccccc2)CC1)NC(c1ccccc1)c1cc(Cl)c2cccnc2c1O (centres unmarked) [N-[(5-chloro-8-hydroxyquinolin-7-yl)(phenyl)methyl]-2-(4-phenylpiperidin-1-yl)acetamide]
IC50 (Agg-1; read-out: Agg1 IC50): ~11 µM | Agg-2 FRET Median PCT INHIB [1]: 57% | IC50 ([1]; read-out: Agg2 IC50): ~3.7 µM
